In US20060058384A1, “Treatment of IGA nephropathy with omega-3 fatty acids” (PRONOVA BIOCARE, A.S., priority 2004, published 2006):
Entries after “also recorded” stand apart in the source; their conditions may differ.

Test system: patients with IgA nephropathy
Assay: Placebo-controlled clinical trial in IgA nephropathy: GFRest, UP/C and Composite Response/Outcome Scores
Assay type: in vivo, human
Description: In a multicenter, placebo-controlled, double blind clinical trial, we evaluated the efficacy of a 24-month stable daily dose (4 grams per day) of a highly purified preparation of O3 (especially icosapent & doconexent).
We performed secondary analyses based on clinical response scores derived from changes in the level of proteinuria (defined by urine protein to creatinine ratios in first morning urine specimens) and GFRest. Composite Response Score, which represented changes in proteinuria and GFR scores were also calculated.
This was a placebo-controlled, prospective clinical trial. After fulfilling all entry criteria, patients were assigned to one of three treatment arms, as described in our paper discussing the primary analysis of this study.
Randomization of patients was stratified by hypertensive status and blocked randomization was used within each stratum.
Estimation of GFR and level of proteinuria. The glomerular filtration rate (GFR) was estimated at 6 monthly intervals in each patient using standard age-appropriate formulas. […] Serum creatinine measurements were measured by HPLC. […]
Statistical analysis: After it was noted that there was wide variation in the plasma phospholipid fatty acid profiles in patients receiving icosapent/doconexent (FIG. 1), a series of secondary analyses was conducted to determine the cause for this variability and to evaluate if the fatty acid profiles affected patient outcome. Clinical response scores were determined for each patient based on changes in the estimated GFR (−5 to +5) and urine protein/creatinine ratios (−5 to +5) at each 6 month visit up to 36 months. Composite response scores (−10 to +10) at each time interval were then determined based on the patients' combined GFR and UP/C Response Scores—with equal weight given to each (Table 1). Clinical outcome scores were then calculated based on the mean of the Composite Response Scores at 18 and 24 months. The dosage of the study drugs given to each patient was calculated as g/kg body weight and g/m^2 BSA. […]

## C[C@]12C=CC(=O)C=C1CC[C@@H]1[C@@H]2C(=O)C[C@@]2(C)[C@H]1CC[C@]2(O)C(=O)CO [prednisone]
6-month intervals, 0 to 36 months, FIG. 2
  Composite Response Scores, treatment arm as a whole: significantly better; also recorded: better response
24-month treatment, O3 4 grams per day, prednisone alternate-day
  Primary analysis: decrease of GFR to less than 60% of baseline: did not show a statistically significant benefit
Secondary analyses
  Secondary analysis: efficacy by clinical response scores (proteinuria and GFRest): effective
